Test results published in patent US11753397B2, “Cereblon binders for the degradation of ikaros” (C4 Therapeutics, Inc., priority 2018, dated 2023).

test system: NCIH929.1 cells; assay: Cell viability assay (CellTiter-Glo 2.0, ATP quantification); type: cell-based; conditions: NCIH929.1 cell viability, CellTiter-Glo 2.0, 96 hr incubation, top concentration 1 μM
Method in brief: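 Cells seeded at 750/well in RPMI with 10% FBS and 0.05 mM 2-mercaptoethanol, exposed 96 h at 37 °C to 10-point half-log dilutions in duplicate, top 1 μM. Viability by CellTiter-Glo 2.0 ATP luminescence, with a day-0 read as cytostatic baseline (CT0).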

Structure (SMILES)	GI50
CCC1(C(=O)N2CCC(n3cc(CNc4cccc5c4C(=O)N(C4CCC(=O)NC4=O)C5=O)cn3)CC2)CCC1 (centres unmarked) [Compound 86, 2-(2,6-dioxopiperidin-3-yl)-4-(((1-(1-(1-ethylcyclobutane-1-carbonyl)piperidin-4-yl)-1H-pyrazol-4-yl)methyl)amino)isoindoline-1,3-dione]	< 100 nM
CC1(C(=O)N2CCC(n3cc(CNc4cccc5c4C(=O)N(C4CCC(=O)NC4=O)C5=O)cn3)CC2)CC1(Cl)Cl (centres unmarked) [Compound 87, 4-(((1-(1-(2,2-dichloro-1-methylcyclopropane-1-carbonyl)piperidin-4-yl)-1H-pyrazol-4-yl)methyl)amino)-2-(2,6-dioxopiperidin-3-yl)isoindoline-1,3-dione]	< 1 nM
O=C1CCC(N2C(=O)c3cccc(NCc4cnn(C5CCN(C(=O)N6CCCCC6)CC5)c4)c3C2=O)C(=O)N1 (centres unmarked) [Compound 88, 2-(2,6-dioxopiperidin-3-yl)-4-(((1-(1-(piperidine-1-carbonyl)piperidin-4-yl)-1H-pyrazol-4-yl)methyl)amino)isoindoline-1,3-dione]	< 100 nM
CC1(C)C(C(=O)N2CCC(n3cc(CNc4cccc5c4C(=O)N(C4CCC(=O)NC4=O)C5=O)cn3)CC2)C1(C)C (centres unmarked) [Compound 89, 2-(2,6-dioxopiperidin-3-yl)-4-(((1-(1-(2,2,3,3,3-tetramethylcyclopropane-1-carbonyl)piperidin-4-yl)-1H-pyrazol-4-yl)methyl)amino)isoindoline-1,3-dione]	< 1 nM
CC(C)(C)C(=O)N1CCC(n2cc(CNc3cccc4c3C(=O)N(C3CCC(=O)NC3=O)C4=O)cn2)CC1 (centres unmarked) [Compound 90, 2-(2,6-dioxopiperidin-3-yl)-4-(((1-(1-pivaloylpiperidin-4-yl)-1H-pyrazol-4-yl)methyl)amino)isoindoline-1,3-dione]	< 1 nM
O=C1CCC(N2C(=O)c3cccc(NCc4cnn(C5CCN(C(=O)C67CC(CO6)C7)CC5)c4)c3C2=O)C(=O)N1 (centres unmarked) [Compound 91, 4-(((1-(1-(2-oxabicyclo[2.1.1]hexane-1-carbonyl)piperidin-4-yl)-1H-pyrazol-4-yl)methyl)amino)-2-(2,6-dioxopiperidin-3-yl)isoindoline-1,3-dione]	< 100 nM
O=C1CCC(N2C(=O)c3cccc(NCc4cnn(C5CCN(C(=O)C6(Cc7ccc(F)cc7)CC6)CC5)c4)c3C2=O)C(=O)N1 (centres unmarked) [Compound 92, 2-(2,6-dioxopiperidin-3-yl)-4-(((1-(1-(1-(4-fluorobenzyl)cyclopropane-1-carbonyl)piperidin-4-yl)-1H-pyrazol-4-yl)methyl)amino)isoindoline-1,3-dione]	< 100 nM
C#CC1(C(=O)N2CCC(n3cc(CNc4cccc5c4C(=O)N(C4CCC(=O)NC4=O)C5=O)cn3)CC2)CCC1 (centres unmarked) [Compound 93, 2-(2,6-dioxopiperidin-3-yl)-4-(((1-(1-(1-ethynylcyclobutane-1-carbonyl)piperidin-4-yl)-1H-pyrazol-4-yl)methyl)amino)isoindoline-1,3-dione]	< 1 nM
O=C1CCC(N2C(=O)c3cccc(NCc4cnn(C5CCN(C(=O)C6(C7CC7)CCC6)CC5)c4)c3C2=O)C(=O)N1 (centres unmarked) [Compound 94, 4-(((1-(1-(1-cyclopropylcyclobutane-1-carbonyl)piperidin-4-yl)-1H-pyrazol-4-yl)methyl)amino)-2-(2,6-dioxopiperidin-3-yl)isoindoline-1,3-dione]	< 1 nM
O=C1CCC(N2C(=O)c3cccc(NCc4cnn(C5CCN(C(=O)C67C8C9C%10C8C6C%10C97)CC5)c4)c3C2=O)C(=O)N1 [Compound 95, 4-(((1-(1-((1s,4R,3R,4r,5r,6S,7S,8s)-cubane-1-carbonyl)piperidin-4-yl)-1H-pyrazol-4-yl)methyl)amino)-2-(2,6-dioxopiperidin-3-yl)isoindoline-1,3-dione]	< 1 nM
O=C1CCC(N2C(=O)c3cccc(NCc4cnn(C5CCN(C(=O)C6(Cc7ccc(F)cc7)CCC6)CC5)c4)c3C2=O)C(=O)N1 (centres unmarked) [Compound 96, 2-(2,6-dioxopiperidin-3-yl)-4-(((1-(1-(1-(4-fluorobenzyl)cyclobutane-1-carbonyl)piperidin-4-yl)-1H-pyrazol-4-yl)methyl)amino)isoindoline-1,3-dione]	< 1 nM
